Test results as given in US7175993B2 (Saladax Biomedical, Inc., priority 2004, dated 2007).

How the values were obtained:
Assay type in all cases: binding, mice
[1] = tested on: Monoclonal Ab #2 (monoclonal antibody to taxol); experiment: Indirect competitive microtiter plate immunoassay (ELISA), Monoclonal Ab #2
Experimental: (§1) The assay was performed by incubating 50 μL of the analytes to be measured with 50 μL of antibody (produced in example 4) diluted to a titer determined in example 8a. […] Following this incubation the wells of the plate were washed three times with 0.02 M TRIS, 0.9% NaCl, 0.5% Tween-80 and 0.001% Thimerosal, pH 7.8 to remove any material that was not bound. […] To develop a measurable color in the wells, washing was followed by the addition of 100 μL of TMB (TMB Liquid Substrate, Sigma), a substrate for HRP, to develop color in a 10 minute incubation with shaking at room temperature. Following the incubation for color development, 50 μL of stop solution (1.5% sodium fluoride in di H2O) was added to each well to stop the color development and after 10 seconds of shaking the absorbance was determined at 650 nm (Molecular Devices Plate Reader). The amount of antibody in a well was proportional to the absorbance measured and inversely proportional to the amount of taxol in the sample. The absorbance of the color in the wells containing analyte is compared to that with no analyte and a standard curve is generated. […] The cross-reactivity with 6-α-hydroxypaclitaxel was less than 60%. […]
(§2) The assay was performed by incubating 50 μL of the analytes to be measured with 50 μL of antibody (produced in example 4) diluted to a titer determined in example 8a. […] Following this incubation the wells of the plate were washed three times with 0.02 M TRIS, 0.9% NaCl, 0.5% Tween-80 and 0.001% Thimerosal, pH 7.8 to remove any material that was not bound. […] This secondary antibody was capable of binding specifically with murine immunoglobulins producing a colored product when incubated with a substrate. […] To develop a measurable color in the wells, washing was followed by the addition of 100 μL of TMB (TMB Liquid Substrate, Sigma), a substrate for HRP, to develop color in a 10 minute incubation with shaking at room temperature. Following the incubation for color development, 50 μL of stop solution (1.5% sodium fluoride in di H2O) was added to each well to stop the color development and after 10 seconds of shaking the absorbance was determined at 650 nm (Molecular Devices Plate Reader). The amount of antibody in a well was proportional to the absorbance measured and inversely proportional to the amount of taxol in the sample. The absorbance of the color in the wells containing analyte is compared to that with no analyte and a standard curve is generated. […]

[2] = tested on: taxol polyclonal antibodies; experiment: Indirect competitive microtiter plate immunoassay (ELISA), polyclonal antibodies to taxol (pool of antisera); details: for Cross-reactivity relative to taxol: polyclonal antibody pool
Experimental: as §1, §2

[3] = tested on: Monoclonal Ab #1 (monoclonal antibody to taxol); experiment: Indirect competitive microtiter plate immunoassay (ELISA), Monoclonal Ab #1
Experimental: as §1, §2

[4] = plate sensitized with Taxol Derivative 5
[5] = plate sensitized with Taxol Derivative 8
[6] = microtiter plate sensitized with Taxol Derivative 5 (example 9a)
[7] = microtiter plate sensitized with Taxol Derivative 8 (example 9b)

CC(=O)O[C@H]1C(=O)[C@@]2(C)[C@H]([C@H](OC(=O)c3ccccc3)[C@]3(O)C[C@H](OC(=O)[C@H](O)[C@@H](NC(=O)c4ccccc4)c4ccc(O)cc4)C(C)=C1C3(C)C)[C@]1(OC(C)=O)CO[C@@H]1C[C@@H]2O [3′-p-Hydroxypaclitaxel, 3′-p-hydroxypaclitaxel]
Cross-reactivity relative to taxol [1, 4]: ≦2.3%
Cross-reactivity relative to taxol [1, 5]: 1.5%
Cross-reactivity relative to taxol [2, 6]: ≦10%
Cross-reactivity relative to taxol [2, 7]: 0.57%
Cross-reactivity relative to taxol [3, 4]: 5.9%
Cross-reactivity relative to taxol [3, 5]: 8.1%

CC(=O)O[C@H]1C(=O)[C@@]2(C)[C@H]([C@H](OC(=O)c3ccccc3)[C@]3(O)C[C@H](OC(=O)[C@H](O)[C@@H](NC(=O)c4ccccc4)c4ccccc4)C(C)=C1C3(C)C)[C@]1(OC(C)=O)CO[C@@H]1[C@@H](O)[C@@H]2O [6-α-Hydroxypaclitaxel, 6-α-hydroxypaclitaxel]
Cross-reactivity relative to taxol [1, 4]: ≦4.6%
Cross-reactivity relative to taxol [1, 5]: 2.9%
Cross-reactivity relative to taxol [2, 6]: <58%
Cross-reactivity relative to taxol [2, 7]: 1.60%
Cross-reactivity relative to taxol [3, 4]: 5.1%
Cross-reactivity relative to taxol [3, 5]: 6.5%

CC(=O)O[C@H]1C(=O)[C@@]2(C)[C@H]([C@H](OC(=O)c3ccccc3)[C@]3(O)C[C@H](O)C(C)=C1C3(C)C)[C@]1(OC(C)=O)CO[C@@H]1C[C@@H]2O [Baccatin III]
Cross-reactivity relative to taxol [1, 4]: ≦0.19%
Cross-reactivity relative to taxol [1, 5]: 0.13%
Cross-reactivity relative to taxol [2, 6]: 0.10%
Cross-reactivity relative to taxol [2, 7]: 0.10%
Cross-reactivity relative to taxol [3, 4]: 0.13%
Cross-reactivity relative to taxol [3, 5]: 0.17%

CC(=O)O[C@@]12CO[C@@H]1C[C@H](O)[C@@]1(C)C(=O)[C@H](O)C3=C(C)[C@@H](OC(=O)[C@H](O)[C@@H](NC(=O)OC(C)(C)C)c4ccccc4)C[C@@](O)([C@@H](OC(=O)c4ccccc4)[C@H]21)C3(C)C [Docetaxel]
Cross-reactivity relative to taxol [1, 4]: 101%
Cross-reactivity relative to taxol [1, 5]: 85%
Cross-reactivity relative to taxol [2, 6]: ≦5%
Cross-reactivity relative to taxol [2, 7]: 0.16%
Cross-reactivity relative to taxol [3, 4]: 76%
Cross-reactivity relative to taxol [3, 5]: 77%

CC(=O)O[C@H]1C(=O)[C@@]2(C)[C@H]([C@H](OC(=O)c3ccccc3)[C@]3(O)C[C@H](OC(=O)[C@H](O)[C@@H](NC(=O)c4ccccc4)c4ccccc4)C(C)=C1C3(C)C)[C@]1(OC(C)=O)CO[C@@H]1C[C@@H]2O [Taxol (Paclitaxel), Taxol]
IC50 ([2]; antisera of the four individual mice combined in the pool): < 0.02 µg/mL
